Laboratory results published in publication PMC9127750, “Structure-based design of CDC42 effector interaction inhibitors for the treatment of cancer” (Cell reports, 2022).
Several values for one entry are separate records, joined by “and”; a condition that tells them apart may be missing. Equal values may be shown once.

Tested on: WM3248 melanoma cells, 486 antibodies
Assay: Reverse phase protein arrays (RPPA)
Type: cell-based, Human
Description: Pellets were snap frozen in liquid nitrogen and shipped to MD Anderson Cancer Center core RPPA facility for RPPA analysis (Table S5). Three biological replicates for each sample were generated.
Nomenclatures on the RPPA heatmaps: name_of_antibody.species_of_antibody.status_of_antibody. V - antibody validated; C - validation of antibody in progress; Q - antibody nonspecific; E – under evaluation; antibodies raised in M - mouse, G - goat, R - rabbit, or T - rat.

[1] = Norm_10, replicates 1-3 and Average, relative to Norm_0

Structure (SMILES): CN(C)c1cccc(Nc2cc(-c3ccccc3)nc(C3CCNCC3)n2)c1 [ARN22089, N1,N1-dimethyl-N3-(6-phenyl-2-(piperidin-4-yl)pyrimidin-4-yl)benzene-1,3-diamine]
- A.Raf.R.V RPPA signal, normalized [1]: 1.018 and 0.886 and 0.845 and 0.916
- A.Raf_pS299.R.C RPPA signal, normalized [1]: 0.956 and 1.046 and 0.963 and 0.988
- ACC1.R.C RPPA signal, normalized [1]: 0.867 and 0.964 and 1.014
- ACC_pS79.R.V RPPA signal, normalized [1]: 1.238 and 0.635 and 0.956 and 0.943
- ACLY_pS455.R.V RPPA signal, normalized [1]: 1.247 and 1.003 and 1.249 and 1.166
- ACSL1.R.V RPPA signal, normalized [1]: 1.119 and 1.062 and 0.954
- ACVRL1.R.C RPPA signal, normalized [1]: 0.974 and 1.028 and 1.030
- ADAR1.M.V RPPA signal, normalized [1]: 1.080 and 1.272 and 0.921
- ALKBH5.R.V RPPA signal, normalized [1]: 1.021 and 1.291 and 1.103 and 1.138
- AMPK.a2_pS345.R.V RPPA signal, normalized [1]: 0.954 and 0.956 and 0.960
- AMPKa.R.C RPPA signal, normalized [1]: 1.010 and 0.920 and 1.002 and 0.977
- AMPKa_pT172.R.C RPPA signal, normalized [1]: 3.569 and 0.222 and 0.796 and 1.529
- AR.R.V RPPA signal, normalized [1]: 0.751 and 0.934 and 0.920
- ARID1A.R.C RPPA signal, normalized [1]: 1.114 and 1.573 and 0.868 and 1.185
- ASNS.R.V RPPA signal, normalized [1]: 1.340 and 0.994 and 0.954 and 1.096
- ATM.R.V RPPA signal, normalized [1]: 0.847 and 0.838 and 0.979 and 0.888
- ATM_pS1981.R.V RPPA signal, normalized [1]: 0.930 and 1.145
- ATP5A.M.C RPPA signal, normalized [1]: 1.031 and 1.371 and 1.971 and 1.457
- ATP5H.R.V RPPA signal, normalized [1]: 0.974 and 1.346 and 1.188 and 1.169
- ATR.R.V RPPA signal, normalized [1]: 0.962 and 1.081 and 1.002 and 1.015
- ATRX.R.C RPPA signal, normalized [1]: 0.876 and 0.968 and 0.978
- ATR_pS428.R.C RPPA signal, normalized [1]: 1.008 and 0.851 and 1.012 and 0.957
- AceCS1.R.V RPPA signal, normalized [1]: 1.235 and 1.121
- Akt1.R.V RPPA signal, normalized [1]: 0.800 and 0.756 and 1.156 and 0.904
- Akt1_pS473.R.V RPPA signal, normalized [1]: 0.892 and 0.682 and 1.059 and 0.878
- Akt2.R.V RPPA signal, normalized [1]: 0.829 and 0.768 and 1.018 and 0.872
- Akt2_pS474.R.C RPPA signal, normalized [1]: 1.011 and 0.801 and 0.950
- Akt.R.V RPPA signal, normalized [1]: 0.830 and 0.878 (2×) and 0.925
- Akt_pS473.R.V RPPA signal, normalized [1]: 2.128 and 0.984 and 1.238 and 1.450
- Akt_pT308.R.V RPPA signal, normalized [1]: 1.187 and 1.056 and 1.185 and 1.143
- Ambra1_pS52.R.C RPPA signal, normalized [1]: 0.964 (2×) and 1.015 and 0.981
- Annexin.I.M.V RPPA signal, normalized [1]: 0.849 and 0.987 and 1.005
- Annexin.VII.M.V RPPA signal, normalized [1]: 0.985 and 1.189 and 0.954
- Atg3.R.V RPPA signal, normalized [1]: 0.983 and 0.993 and 0.963
- Atg4B.R.C RPPA signal, normalized [1]: 0.966 and 1.004
- Atg5.R.C RPPA signal, normalized [1]: 0.905 and 0.930 and 0.971 and 0.935
- Atg7.R.V RPPA signal, normalized [1]: 0.958 and 0.891 and 0.903 and 0.917
- Aurora.A.R.C RPPA signal, normalized [1]: 0.694 and 1.245 and 1.028 and 0.989
- Aurora.ABC_pT288_pT232_pT198.R.C RPPA signal, normalized [1]: 1.548 and 0.847 and 0.955 and 1.117
- Aurora.B.R.V RPPA signal, normalized [1]: 1.012 and 1.271 and 1.347 and 1.210
- Axl.R.V RPPA signal, normalized [1]: 1.047 and 0.637 and 0.861 and 0.848
- B7.H3.R.C RPPA signal, normalized [1]: 0.961 and 0.915 and 0.940 and 0.939
- B7.H4.R.C RPPA signal, normalized [1]: 0.943 and 0.916 and 1.001 and 0.953
- B.Raf.R.C RPPA signal, normalized [1]: 0.738 and 0.844 and 1.157 and 0.913
- B.Raf_pS445.R.V RPPA signal, normalized [1]: 0.940 and 0.823 and 0.918 and 0.894
- BAP1.M.V RPPA signal, normalized [1]: 0.893 and 1.010 and 1.204
- BCL2A1.R.V RPPA signal, normalized [1]: 0.914 and 2.333 and 1.252 and 1.499
- BMK1.Erk5_pT218_Y220.R.V RPPA signal, normalized [1]: 0.935 and 0.870 and 0.918
- BRCA1.M.C RPPA signal, normalized [1]: 0.931 and 1.056 and 1.010
- BRD4.R.V RPPA signal, normalized [1]: 1.134 and 1.372 and 0.806 and 1.104
- Bad_pS112.R.V RPPA signal, normalized [1]: 1.129 and 0.968 and 1.064 and 1.054
- Bak.R.C RPPA signal, normalized [1]: 1.051 and 0.994 and 0.952 and 0.999
- Bax.R.V RPPA signal, normalized [1]: 0.935 and 1.085 and 1.013 and 1.011
- Bcl2.R.C RPPA signal, normalized [1]: 0.991 and 1.244 and 1.141 and 1.125
- Bcl.xL.R.V RPPA signal, normalized [1]: 0.890 and 1.164 and 1.151
- Beclin.R.C RPPA signal, normalized [1]: 0.901 and 1.245 and 1.080
- BiP.GRP78.M.C RPPA signal, normalized [1]: 0.879 and 1.117 and 1.006 and 1.001
- Bid.R.C RPPA signal, normalized [1]: 0.866 and 0.980 and 0.948 and 0.931
- Bim.R.V RPPA signal, normalized [1]: 0.847 and 0.884 and 0.890 and 0.874
- X4E.BP1.R.V RPPA signal, normalized [1]: 1.207 and 0.505 and 0.892 and 0.868
- X4E.BP1_pS65.R.V RPPA signal, normalized [1]: 0.934 and 1.191 and 1.054
- X4E.BP1_pT37_T46.R.V RPPA signal, normalized [1]: 0.921 and 1.081 and 1.234 and 1.079
- X14.3.3.zeta.R.V RPPA signal, normalized [1]: 1.058 and 1.063
- X14.3.3βR.V RPPA signal, normalized [1]: 0.989 and 1.030 and 1.010 (2×)
- X14.3.3εM.C RPPA signal, normalized [1]: 0.934 and 0.986 and 1.121 and 1.013
- X53BP1.R.V RPPA signal, normalized [1]: 0.994 and 0.931 and 0.923
- b.Actin.R.C RPPA signal, normalized [1]: 0.850 and 1.249 and 1.164
- b.Catenin.R.V RPPA signal, normalized [1]: 0.881 and 0.923
- b.Catenin_pT41_S45.R.V RPPA signal, normalized [1]: 1.016 and 0.989 and 1.006 and 1.004
- c.Abl.R.V RPPA signal, normalized [1]: 1.105 and 1.008 and 1.020
- c.Abl_pY412.R.C RPPA signal, normalized [1]: 0.873 and 0.871 and 0.928
- c.IAP2.R.C RPPA signal, normalized [1]: 1.099 and 1.057
- C.Raf.R.C normalized signal (Norm_10 Average): 0.862
- C.Raf_pS338.R.V normalized signal (Norm_10 Average): 0.971
- CA9.R.C normalized signal (Norm_10 Average): 0.943
- CD2.M.C normalized signal (Norm_10 Average): 0.963
- CD4.R.V normalized signal (Norm_10 Average): 0.931
- CD5.M.C normalized signal (Norm_10 Average): 1.007
- CD20.R.C normalized signal (Norm_10 Average): 1.296
- CD26.R.V normalized signal (Norm_10 Average): 1.007
- CD29.M.V normalized signal (Norm_10 Average): 0.953
